Data taken from PMC12389155 (Pharmaceuticals, 2025).

Tests used:
HCT 116 cells = experiment: MTT cytotoxicity assay in HCT 116 colorectal cancer cells; type: cell-based; conditions: Homo sapiens, HCT 116, 48 h exposure, ± SEM, read-out: IC50 (cytotoxic activity)
Method: (§1) The colorectal cancer cell line HCT 116 (ATCC CCL-247) was grown in Roswell Park Memorial Institute 1640 Medium (RPMI, Biochrom Ltd., Cambridge, UK), and the breast cancer cell line MDA-MB-231 (ATCC HTB-26, American Type Culture Collection, Manassas, VA, USA) was maintained in Dulbecco’s Modified Eagle Medium (DMEM, Biochrom Ltd., Cambridge, UK) supplemented with 10% (v/v) fetal bovine serum (FBS, Biochrom Ltd., Cambridge, UK) and 1% (v/v) penicillin-streptomycin (p/s, Biochrom) on tissue-culture-treated flasks. The human fibroblast BJ-5ta cell line (ATCC CRL-2522) was grown in a 4:1 proportion of DMEM:Medium 199 (PAN-Biotech GmbH, Aidenbach, Germany), supplemented with 10% (v/v) FBS, 1% (v/v) p/s, and 0.01% (v/v) hygromycin B (Sigma-Aldrich, St. Louis, MO, USA). All cell lines were authenticated and tested for mycoplasma contamination. Cells were incubated at 37 °C with 5% CO2 and 95% relative humidity. […] Cell counts were determined using a hemocytometer. […]
(§2) After the incubation period, the culture media was discarded from each well, and 100 µL (0.5 mg/mL) was added. […] Cell viability was determined based on the absorbance measured at 570 nm using a microplate reader (Cytation 3, BioTek Instruments, Winooski, VT, USA). The absorbance of untreated cells or DMSO-treated cells was considered at 100% cell viability. […]

MDA-MB-231 cells = experiment: MTT cytotoxicity assay in MDA-MB-231 triple-negative breast cancer cells; type: cell-based; conditions: Homo sapiens, MDA-MB-231, 48 h exposure, ± SEM, read-out: IC50 (cytotoxic activity)
Method: as §1, §2

COR-L23 cells = system: COR-L23 cells; set-up: method as in PMID 21366300; conditions: COR-L23 lung cancer cells; read-out: IC50 nucleoside-nucleobase transport inhibition; cited from earlier work
Aqueous solubility = type: physicochemical
EGFR = system: EGFR; set-up: method as in PMID 22753156, PMID 15199094; conditions: cited from earlier work

SMILES | IC50 (HCT 116 cells) [nM] | IC50 (MDA-MB-231 cells) [nM] | IC50 (COR-L23 cells) [nM] | other results
O=c1[nH]cc(F)c(=O)[nH]1 [5-FU, 5-Fluorouracil] | 10400 ± 680 | 183000 ± 17100 |  | 
COc1ccc(CCc2nc(NCC(C)O)nc3c(NCc4ccc(OC)c(OC)c4)nc(CCC(C)OC(=O)Nc4ccccc4)nc23)cc1OC (stereo not drawn) [IV] |  |  | 8 | 
O=C(NNc1ncnc2c(Nc3ccc(OC(F)(F)F)cc3)ncnc12)c1ccccc1 [PP, N’-(8-((4-(Trifluoromethoxy)phenyl)amino)pyrimido[5,4-d]pyrimidin-4-yl)benzohydrazide] | 2040 ± 450 | 5240 ± 240 |  | Solubility in aqueous medium (Aqueous solubility): poor solubility in aqueous medium
COc1ccc(NC(=O)OC(C)CCc2nc(NCc3ccc(OC)c(OC)c3)c3nc(NCC(C)OC(=O)CCC(=O)O)nc(CCc4ccc(OC)c(OC)c4)c3n2)cc1 (stereo not drawn) [VI] |  |  | 7 | 
COc1ccc(NC(=O)OC(C)CCc2nc(NCc3ccc(OC)c(OC)c3)c3nc(NCC(C)O)nc(CCc4ccc(OC)c(OC)c4)c3n2)cc1 (stereo not drawn) [V] |  |  | 4 | 
CCN(CC)CC1CCN(c2ncc3ncnc(Nc4ccc(F)c(Cl)c4)c3n2)CC1 [compound III] |  |  |  | Activity as EGFR tyrosine kinase inhibitors (EGFR): nanomolar range
